Measured values: patent US11345694B2, “Antibacterial compounds” (DISCUVA LTD., priority 2017, dated 2022)
≈ marks a conversion by molar mass, not a printed value.

Key:
[1] = system: human hepatocarcinoma cell line ATCC HB-8065 (HepG2); test: Human cell viability (CellTiter-Glo); type: cell-based; settings: Homo sapiens; HepG2 cells, 24 h incubation, CellTiter-Glo luminescence, 0.2-100 μM; read-out: IC50 values against the HepG2 cell line
Outline: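 HepG2 cells were seeded at 20,000 cells/well in MEM with 10% FBS and, after 24 h, exposed for 24 h at 37° C. to two-fold dilutions (final 0.2-100 μM) in MEM with 1% FBS and 1% DMSO. Viability was read by CellTiter-Glo luminescence, with IC50 from a 4-parameter logistic fit.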

[2] = system: K. pneumoniae H154600588 (KP8); test: MIC broth microdilution; type: cell-based, Klebsiella pneumoniae; settings: Klebsiella pneumoniae
Outline: (§1)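 Following CLSI broth microdilution guidance, compounds were serially diluted two-fold to final concentrations of 0.39-200 μM. Planktonic cultures in cation-adjusted Müller-Hinton broth were then incubated 20-24 hours at 37° C, and the lowest concentration preventing growth was recorded as MIC.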

[3] = system: K. pneumoniae H154640784 (KP7); test: MIC broth microdilution; type: cell-based, Klebsiella pneumoniae; settings: Klebsiella pneumoniae
Outline: as §1

[4] = system: K. pneumoniae ATCC 700603 (KP3); test: MIC broth microdilution; type: cell-based, Klebsiella pneumoniae; settings: Klebsiella pneumoniae, ATCC700603
Outline: as §1

[5] = system: K. pneumoniae H154020667 (KP6); test: MIC broth microdilution; type: cell-based, Klebsiella pneumoniae; settings: Klebsiella pneumoniae
Outline: as §1

[6] = system: K. pneumoniae H154300688 (KP9); test: MIC broth microdilution; type: cell-based, Klebsiella pneumoniae; settings: Klebsiella pneumoniae
Outline: as §1

[7] = system: K. pneumoniae NCTC 13438 (KP1); test: MIC broth microdilution; type: cell-based, Klebsiella pneumoniae; settings: Klebsiella pneumoniae, NCTC13438
Outline: as §1

[8] = system: K. pneumoniae H151440671 (KP10); test: MIC broth microdilution; type: cell-based, Klebsiella pneumoniae; settings: Klebsiella pneumoniae
Outline: as §1

[9] = system: K. pneumoniae H154680676 (KP5); test: MIC broth microdilution; type: cell-based, Klebsiella pneumoniae; settings: Klebsiella pneumoniae
Outline: as §1

[10] = system: Staphylococcus aureus ATCC 35556 (SA); test: MIC broth microdilution; type: cell-based; settings: ATCC35556
Outline: (§2)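 Growth inhibition of planktonic bacteria by CLSI-guided broth microdilution, cation-adjusted Müller-Hinton medium, 37° C for 20-24 h; MIC from a 0.39-200 μM two-fold series.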

[11] = system: Escherichia coli K12 (EC); test: MIC broth microdilution; type: cell-based
Outline: as §2

[12] = system: Klebsiella pneumoniae ATCC 51504 (KP4); test: MIC broth microdilution; type: cell-based; settings: ATCC51504
Outline: as §2

[13] = system: Acinetobacter baumannii ATCC 17978 (AB); test: MIC broth microdilution; type: cell-based; settings: ATCC17978
Outline: as §2

[14] = system: Pseudomonas aeruginosa ATCC 33359 (PA); test: MIC broth microdilution; type: cell-based; settings: ATCC33359
Outline: as §2

[15] = system: Klebsiella pneumoniae ATCC 10031 (KP2); test: MIC broth microdilution; type: cell-based; settings: ATCC10031
Outline: as §1

[16] = system: E. coli NCTC 13441 (UPEC); test: MIC broth microdilution; type: cell-based, Escherichia coli; settings: Escherichia coli, NCTC13441
Outline: as §2

SMILES | IC50 [1] [µM] | MIC [2] [µM] | MIC [3] [µM] | MIC [4] [µM] | MIC [5] [µM] | MIC [6] [µM] | MIC [7] [µM] | MIC [8] [µM] | MIC [9] [µM] | MIC [10] [µM] | MIC [11] [µM] | MIC [12] [µM] | MIC [13] [µM] | MIC [14] [µM] | MIC [15] [µM] | MIC [16] [µM]
Cc1cc(-c2[nH]c(N)nc2-c2ccc3c(c2)NCCC3)ccn1 [Example 58, 5-(2-Methylpyridin-4-yl)-4-(1,2,3,4-tetrahydroquinolin-7-yl)-1H-imidazol-2-amine] | > 100 | 10 to 100 (≈ 3.05 to 30.5 µg/mL) | 10 to 100 (≈ 3.05 to 30.5 µg/mL) | 10 to 100 (≈ 3.05 to 30.5 µg/mL) | 1 to 10 (≈ 0.305 to 3.05 µg/mL) | 1 to 10 (≈ 0.305 to 3.05 µg/mL) | 10 to 100 (≈ 3.05 to 30.5 µg/mL) | 1 to 10 (≈ 0.305 to 3.05 µg/mL) | 1 to 10 (≈ 0.305 to 3.05 µg/mL) | > 100 | 1 to 10 (≈ 0.305 to 3.05 µg/mL) | 1 to 10 (≈ 0.305 to 3.05 µg/mL) | > 100 | > 100 | ≤ 1 | ≤ 1
Nc1cc(-c2[nH]c(N)nc2-c2ccc3c(c2)OCCO3)ccn1 [Example 24, 4-(2-Amino-4-(2,3-dihydrobenzo[b][1,4]dioxin-6-yl)-1H-imidazol-5-yl)pyridin-2-amine] | > 100 | 10 to 100 (≈ 3.09 to 30.9 µg/mL) | 10 to 100 (≈ 3.09 to 30.9 µg/mL) | 10 to 100 (≈ 3.09 to 30.9 µg/mL) | 1 to 10 (≈ 0.309 to 3.09 µg/mL) | 10 to 100 (≈ 3.09 to 30.9 µg/mL) | 10 to 100 (≈ 3.09 to 30.9 µg/mL) | 1 to 10 (≈ 0.309 to 3.09 µg/mL) | 1 to 10 (≈ 0.309 to 3.09 µg/mL) | > 100 | 1 to 10 (≈ 0.309 to 3.09 µg/mL) |  | > 100 | > 100 | ≤ 1 | 1 to 10 (≈ 0.309 to 3.09 µg/mL)
Cc1cc(-c2[nH]c(N)nc2-c2cc(F)c3c(c2)OCCO3)ccn1 [Example 56, 4-(8-fluoro-2,3-dihydrobenzo[b][1,4]dioxin-6-yl)-5-(2-methylpyridin-4-yl)-1H-imidazol-2-amine] | > 100 | 1 to 10 (≈ 0.326 to 3.26 µg/mL) | 1 to 10 (≈ 0.326 to 3.26 µg/mL) | 1 to 10 (≈ 0.326 to 3.26 µg/mL) | ≤ 1 | 1 to 10 (≈ 0.326 to 3.26 µg/mL) | 1 to 10 (≈ 0.326 to 3.26 µg/mL) | ≤ 1 | ≤ 1 | > 100 | 1 to 10 (≈ 0.326 to 3.26 µg/mL) | ≤ 1 | > 100 | > 100 | ≤ 1 | 1 to 10 (≈ 0.326 to 3.26 µg/mL)
Cc1cc(-c2[nH]c(C)nc2-c2ccc3c(c2)OCCO3)ccn1 [Example 84, 4-(4-(2,3-Dihydrobenzo[b][1,4]dioxin-6-yl)-2-methyl-1H-imidazol-5-yl)-2-methylpyridine] | > 100 | 10 to 100 (≈ 3.07 to 30.7 µg/mL) | 10 to 100 (≈ 3.07 to 30.7 µg/mL) | 10 to 100 (≈ 3.07 to 30.7 µg/mL) | 1 to 10 (≈ 0.307 to 3.07 µg/mL) | 10 to 100 (≈ 3.07 to 30.7 µg/mL) | 10 to 100 (≈ 3.07 to 30.7 µg/mL) | 1 to 10 (≈ 0.307 to 3.07 µg/mL) | 1 to 10 (≈ 0.307 to 3.07 µg/mL) | > 100 | 1 to 10 (≈ 0.307 to 3.07 µg/mL) |  | > 100 | > 100 | ≤ 1 | 1 to 10 (≈ 0.307 to 3.07 µg/mL)
Cc1cc(-c2[nH]c(N)nc2-c2cc(F)c3c(c2)NCCO3)ccn1 [Example 49, 4-(8-Fluoro-3,4-dihydro-2H-benzo[b][1,4]oxazin-6-yl)-5-(2-methylpyridin-4-yl)-1H-imidazol-2-amine] | > 100 | 1 to 10 (≈ 0.325 to 3.25 µg/mL) | 1 to 10 (≈ 0.325 to 3.25 µg/mL) | 1 to 10 (≈ 0.325 to 3.25 µg/mL) | ≤ 1 | 1 to 10 (≈ 0.325 to 3.25 µg/mL) | 1 to 10 (≈ 0.325 to 3.25 µg/mL) | 1 to 10 (≈ 0.325 to 3.25 µg/mL) | ≤ 1 | > 100 | ≤ 1 | ≤ 1 | > 100 | > 100 | ≤ 1 | 1 to 10 (≈ 0.325 to 3.25 µg/mL)
COc1ccc(-c2nc(N)[nH]c2-c2ccnc(C)c2)cc1Cl [Example 12, 4-(3-Chloro-4-methoxyphenyl)-5-(2-methylpyridin-4-yl)-1H-imidazol-2-amine] | > 100 | 10 to 100 (≈ 3.15 to 31.5 µg/mL) | 10 to 100 (≈ 3.15 to 31.5 µg/mL) | 10 to 100 (≈ 3.15 to 31.5 µg/mL) | 1 to 10 (≈ 0.315 to 3.15 µg/mL) | 1 to 10 (≈ 0.315 to 3.15 µg/mL) | 10 to 100 (≈ 3.15 to 31.5 µg/mL) | 1 to 10 (≈ 0.315 to 3.15 µg/mL) | 1 to 10 (≈ 0.315 to 3.15 µg/mL) | > 100 | 1 to 10 (≈ 0.315 to 3.15 µg/mL) |  | > 100 | > 100 | ≤ 1 | 1 to 10 (≈ 0.315 to 3.15 µg/mL)
COc1ncc(-c2nc(N)[nH]c2-c2ccnc(C)c2)cc1F [Example 29, 4-(5-Fluoro-6-methoxypyridin-3-yl)-5-(2-methylpyridin-4-yl)-1H-imidazol-2-amine] | > 100 | 10 to 100 (≈ 2.99 to 29.9 µg/mL) | 10 to 100 (≈ 2.99 to 29.9 µg/mL) | 10 to 100 (≈ 2.99 to 29.9 µg/mL) | 1 to 10 (≈ 0.299 to 2.99 µg/mL) | 1 to 10 (≈ 0.299 to 2.99 µg/mL) | 10 to 100 (≈ 2.99 to 29.9 µg/mL) | 1 to 10 (≈ 0.299 to 2.99 µg/mL) | 1 to 10 (≈ 0.299 to 2.99 µg/mL) | > 100 | ≤ 1 |  | > 100 | > 100 | ≤ 1 | ≤ 1
